These results are taken from patent US11078193B2 (priority 2014, dated 2021).

The subject of series [1] is HBV. The series can be described thus: anti-HBV activity, HepG2.2.15 stable transfected cell line, HBV DNA from secreted virions by realtime PCR. The class given is cell-based. As to conditions: Hepatitis B virus, 144 h, HepG2.2.15 cells, 6 days of treatment.
Series [2] is described as follows: Cytotoxicity, HepG2 cells, Resazurin assay. The class given is cell-based. The following applies: human.
Series [3] can be described thus: ATP based toxicity assay (ATPlite), HepG2 cell line. The following applies: human, HepG2 cells, ATPlite (ATP levels). An outline of the steps: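 HepG2 cells exposed to compound, then ATPlite reagent added at 1 volume. Cellular ATP read by luminescence as a viability measure.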
For orientation: Cellular ATP, detected with luciferase, serves as a proxy for viable cell number.

Series [4] relates to HBV. The series can be described thus: anti HBV activity, HepG2.117 inducibly HBV producing cell line (Tet-off), intracellular HBV DNA by realtime PCR. The class given is cell-based. The following applies: Hepatitis B virus, 72 h, HepG2.117 cells, 3 days of treatment.

Take `Cc1nc(NC(=O)c2c(Cl)c(S(=O)(=O)N[C@H](C)C(F)(F)F)cn2C)ccc1F` [Compound 7, 3-Chloro-N-(5-fluoro-6-methylpyridin-2-yl)-1-methyl-4-{[(1R)-2,2,2-trifluoro-1-methylethyl]sulfamoyl}-1H-pyrrole-2-carboxamide]: the melting point (commonly the temperature of the solid-liquid transition) amounted to 173.1 °C. In addition, in the series with HBV [1], the EC50 (in general, the concentration giving half of the maximal effect) amounted to 0.09 µM. In series [2], the half-maximal cytotoxic concentration (CC50) (as a rule, the concentration at which the toxic effect on the cells reaches its halfway point) at 4 days was > 25 µM. In series [3], the CC50 at 4 days is > 25 µM. The concentration for a half-maximal effect (EC50) in the series on HBV [4] stood at 0.25 µM.

In turn, `C[C@@H](NS(=O)(=O)c1cn(C)c(C(=O)Nc2ccnc(F)c2)c1Cl)C(F)(F)F` [Compound 11, 3-Chloro-N-(2-fluoropyridin-4-yl)-1-methyl-4-{[(1R)-2,2,2-trifluoro-1-methylethyl]sulfamoyl}-1H-pyrrole-2-carboxamide] registered a melting point of 218.1 °C. Besides, a half-maximal response in the series on HBV [1] (EC50) required 0.02 µM. Besides, the cytotoxic concentration (CC50) at 4 days in series [2] was > 25 µM. The same compound returned an EC50 in the series on HBV [4] of 0.06 µM.

The compound `C[C@@H](NS(=O)(=O)c1cn(C)c(C(=O)Nc2ccnc(C#N)c2)c1Cl)C(F)(F)F` [Compound 9, 3-Chloro-N-(2-cyanopyridin-4-yl)-1-methyl-4-{[(1R)-2,2,2-trifluoro-1-methylethyl]sulfamoyl}-1H-pyrrole-2-carboxamide] returned a melting point of 190.8 °C. Also, in the series on HBV [1], a half-maximal response (EC50) required 0.02 µM. For the same compound, the cytotoxic concentration (CC50) at 4 days in series [2] is > 25 µM. For the same compound, the CC50 at 4 days in series [3] was > 25 µM. Further, the response with HBV [4] was half-maximal at 0.04 µM (EC50).

As to `C[C@@H](NS(=O)(=O)c1cn(C)c(C(=O)Nc2ccnc(C(F)F)c2)c1F)C(C)(F)F` [Compound 88, 4-[[(1R)-2,2-difluoro-1-methyl-propyl]sulfamoyl]-N-[2-(difluoromethyl)-4-pyridyl]-3-fluoro-1-methyl-pyrrole-2-carboxamide], the EC50 came out at 0.007 µM with HBV [1] and 0.01 µM with HBV [4]. Also, the CC50 at 4 days in series [2] and in series [3] was > 25 µM in each case.

For the compound `Cn1cc(S(=O)(=O)NC2(C(F)(F)F)CCC2)c(Cl)c1C(=O)Nc1ccnc(Cl)c1` [Compound 46, 3-chloro-N-(2-chloro-4-pyridyl)-1-methyl-4-[[1-(trifluoromethyl)cyclobutyl]-sulfamoyl]pyrrole-2-carboxamide], the EC50 in the series on HBV [1] came out at 0.01 µM; with HBV [4] it was 0.02 µM. Besides, the CC50 at 4 days in series [2] and in series [3] was > 25 µM throughout.

As to `C[C@@H](NS(=O)(=O)c1cn(C)c(C(=O)Nc2ccnc(C(F)F)c2)c1Cl)C(C)(F)F` [Compound 97, 3-chloro-4-[[(1R)-2,2-difluoro-1-methyl-propyl]sulfamoyl]-N-[2-(difluoromethyl)-4-pyridyl]-1-methyl-pyrrole-2-carboxamide], the EC50 with HBV [1] and in the series with HBV [4] was 0.02 µM in each case. The half-maximal cytotoxic concentration (CC50) at 4 days in series [2] and in series [3] was > 25 µM throughout.

As to `C[C@@H](NS(=O)(=O)c1cn(C)c(C(=O)Nc2ccnc(F)c2)c1F)C(F)(F)F` [Compound 24, 3-fluoro-N-(2-fluoro-4-pyridyl)-1-methyl-4-[[(1R)-2,2,2-trifluoro-1-methyl-ethyl]sulfamoyl]pyrrole-2-carboxamide], the EC50 in the series on HBV [1] and in the series with HBV [4] was 0.04 µM in each case. Also, the CC50 at 4 days in series [2] and in series [3] was > 25 µM throughout.

As to `C[C@@H](NS(=O)(=O)c1cn(C)c(C(=O)Nc2ccnc(F)c2)c1Cl)C(C)(F)F` [Compound 95, 3-chloro-4-[[(1R)-2,2-difluoro-1-methyl-propyl]sulfamoyl]-N-(2-fluoro-4-pyridyl)-1-methyl-pyrrole-2-carboxamide], the EC50 with HBV [1] was determined as 0.06 µM; in the series with HBV [4], 0.04 µM. Besides, the CC50 at 4 days was 21.6 µM in series [2] and > 25 µM in series [3].

Take `Cn1cc(S(=O)(=O)NC2(C)CC(F)(F)C2)c(Cl)c1C(=O)Nc1ccnc(C(F)F)c1` [Compound 99, 3-chloro-4-[(3,3-difluoro-1-methyl-cyclobutyl)sulfamoyl]-N-[2-(difluoromethyl)-4-pyridyl]-1-methyl-pyrrole-2-carboxamide]: the results for the EC50 in the series on HBV [1] and with HBV [4] were 0.01 µM and 0.02 µM, respectively. The CC50 at 4 days in series [2] and in series [3] was > 25 µM each time.

Regarding `Cn1cc(S(=O)(=O)NC2(C)CC(F)(F)C2)c(F)c1C(=O)Nc1ccnc(Cl)c1F` [Compound 81, N-(2-chloro-3-fluoro-4-pyridyl)-4-[(3,3-difluoro-1-methyl-cyclobutyl)sulfamoyl]-3-fluoro-1-methyl-pyrrole-2-carboxamide], the EC50 amounted to 0.01 µM with HBV [1] and 0.008 µM with HBV [4]. Further, the CC50 at 4 days in series [2] was 24.3 µM; in series [3], > 25 µM.

As for `Cc1c(S(=O)(=O)N[C@H](C)C(F)(F)F)c(Cl)c(C(=O)Nc2ccnc(C#N)c2)n1C` [Compound 32, 3-chloro-N-(2-cyano-4-pyridyl)-1,5-dimethyl-4-[[(1R)-2,2,2-trifluoro-1-methyl-ethyl]sulfamoyl]pyrrole-2-carboxamide], the EC50 in the series with HBV [1] and in the series on HBV [4] was 0.02 µM in each case. Further, the CC50 at 4 days in series [2] and in series [3] was > 25 µM each time.

`C[C@@H](NS(=O)(=O)c1cn(C)c(C(=O)Nc2cccnc2)c1Cl)C(F)(F)F` [Compound 17, 3-chloro-1-methyl-N-(3-pyridyl)-4-[[(1R)-2,2,2-trifluoro-1-methyl-ethyl]sulfamoyl]pyrrole-2-carboxamide] yielded a melting point of 196.6 °C. In the series with HBV [1], this compound showed an EC50 of 0.75 µM. The half-maximal cytotoxic concentration (CC50) at 4 days in series [2] is > 25 µM. This compound came in with an EC50 with HBV [4] of 0.53 µM.

As for `Cc1cc(NC(=O)c2c(Cl)c(S(=O)(=O)N[C@H](C)C(F)(F)F)cn2C)ccn1` [Compound 8, 3-Chloro-1-methyl-N-(2-methylpyridin-4-yl)-4-{[(1R)-2,2,2-trifluoro-1-methylethyl]sulfamoyl}-1H-pyrrole-2-carboxamide], the melting point was found to be 203.5 °C. The compound also had an EC50 with HBV [1] of 0.09 µM. Also, the CC50 at 4 days in series [2] is > 25 µM. The same compound came in with an EC50 in the series with HBV [4] of 0.17 µM.

Compound `C[C@@H](NS(=O)(=O)c1cn(C)c(C(=O)Nc2ccccn2)c1Cl)C(F)(F)F` [Compound 15, 3-chloro-1-methyl-N-(2-pyridyl)-4-[[(1R)-2,2,2-trifluoro-1-methyl-ethyl]sulfamoyl]pyrrole-2-carboxamide] yielded a melting point of 195.2 °C. Besides, the EC50 in the series with HBV [1] is > 1 µM. Moreover, the CC50 at 4 days in series [2] is > 25 µM. Also, in the series with HBV [4], the half-maximal effective concentration (EC50) is > 1 µM.

Turning to `C[C@@H](NS(=O)(=O)c1cn(C)c(C(=O)Nc2ccnc(C(F)F)c2)c1F)C(F)(F)F` [Compound 80, N-[2-(difluoromethyl)-4-pyridyl]-3-fluoro-1-methyl-4-[[(1R)-2,2,2-trifluoro-1-methyl-ethyl]sulfamoyl]pyrrole-2-carboxamide], the EC50 worked out at 0.01 µM with HBV [1] and 0.02 µM with HBV [4]. The CC50 at 4 days in series [2] and in series [3] was > 25 µM each time.

`Cc1cc(NC(=O)c2c(F)c(S(=O)(=O)N[C@H](C)C(F)(F)F)cn2C)cc(F)n1` [Compound 152, 3-fluoro-N-(2-fluoro-6-methyl-4-pyridyl)-1-methyl-4-[[(1R)-2,2,2-trifluoro-1-methyl-ethyl]sulfamoyl]pyrrole-2-carboxamide]: the EC50 in the series on HBV [1] is < 0.1 µM; with HBV [4], 0.01 µM. The 50% cytotoxic concentration (CC50) at 4 days in series [2] and in series [3] was > 25 µM in each case.

Take `C[C@@H](NS(=O)(=O)c1cn(C)c(C(=O)Nc2ccncc2)c1Cl)C(F)(F)F` [Compound 16, 3-chloro-1-methyl-N-(4-pyridyl)-4-[[(1R)-2,2,2-trifluoro-1-methyl-ethyl]sulfamoyl]pyrrole-2-carboxamide]: the melting point worked out at 259.3 °C. Moreover, the EC50 with HBV [1] stood at 0.4 µM. For the same compound, the half-maximal cytotoxic concentration (CC50) at 4 days in series [2] was > 25 µM. For the same compound, the response in the series with HBV [4] was half-maximal at 0.28 µM (EC50).

On to `C[C@@H](NS(=O)(=O)c1cn(C)c(C(=O)Nc2ccnc(C#N)c2)c1F)C(F)(F)F` [Compound 18, N-(2-Cyanopyridin-4-yl)-3-fluoro-1-methyl-4-{[(1R)-2,2,2-trifluoro-1-methylethyl]sulfamoyl}-1H-pyrrole-2-carboxamide], for which the EC50 with HBV [1] and with HBV [4] was 0.03 µM throughout. The half-maximal cytotoxic concentration (CC50) at 4 days in series [2] and in series [3] was > 25 µM each time.

As for `Cc1nccc(NC(=O)c2c(Cl)c(S(=O)(=O)N[C@H](C)C(F)(F)F)cn2C)c1F` [Compound 14, 3-chloro-N-(3-fluoro-2-methyl-4-pyridyl)-1-methyl-4-[[(1R)-2,2,2-trifluoro-1-methyl-ethyl]sulfamoyl]pyrrole-2-carboxamide], the melting point is 197.8 °C. The compound further had a concentration for a half-maximal effect (EC50) in the series on HBV [1] of 0.06 µM. In addition, in series [2], the CC50 at 4 days was > 25 µM. For the same compound, the midpoint of the response with HBV [4], the EC50, lay at 0.12 µM.

Turning to `C[C@@H](NS(=O)(=O)c1cn(C)c(C(=O)Nc2ccnc(F)c2)c1F)C(C)(F)F` [Compound 98, 4-[[(1R)-2,2-difluoro-1-methyl-propyl]sulfamoyl]-3-fluoro-N-(2-fluoro-4-pyridyl)-1-methyl-pyrrole-2-carboxamide], the results for the EC50 with HBV [1] and in the series with HBV [4] were 0.04 µM and 0.03 µM, respectively. Further, the CC50 at 4 days in series [2] and in series [3] was > 25 µM throughout.

With `C[C@@H](NS(=O)(=O)c1cn(C)c(C(=O)Nc2ccnc(Cl)c2)c1F)C(F)(F)F` [Compound 20, N-(2-chloro-4-pyridyl)-3-fluoro-1-methyl-[[(1R)-2,2,2-trifluoro-1-methyl-ethyl]sulfamoyl]pyrrole-2-carboxamide], the EC50 in the series with HBV [1] turned out to be 0.03 µM; in the series with HBV [4], 0.02 µM. Further, the CC50 at 4 days in series [2] and in series [3] was > 25 µM each time.
